Test results published in paper PMC10882719 (Frontiers in Neuroscience, 2024).
Read-outs that look alike come from different tables or passages of the source.

Key:
Type in all cases: cell-based
168 GPCRs [1] = biological target: T1, 168 GPCRs (Homo sapiens, UniProt Q8TDS4); settings: GPR109A
T1 construct: host or cells: PathHunter cell lines

168 GPCRs [2] = biological target: T2, 168 GPCRs (Homo sapiens, UniProt Q16581)
T2 construct: host or cells: PathHunter cell lines
T2 sequence (Q16581 1-482): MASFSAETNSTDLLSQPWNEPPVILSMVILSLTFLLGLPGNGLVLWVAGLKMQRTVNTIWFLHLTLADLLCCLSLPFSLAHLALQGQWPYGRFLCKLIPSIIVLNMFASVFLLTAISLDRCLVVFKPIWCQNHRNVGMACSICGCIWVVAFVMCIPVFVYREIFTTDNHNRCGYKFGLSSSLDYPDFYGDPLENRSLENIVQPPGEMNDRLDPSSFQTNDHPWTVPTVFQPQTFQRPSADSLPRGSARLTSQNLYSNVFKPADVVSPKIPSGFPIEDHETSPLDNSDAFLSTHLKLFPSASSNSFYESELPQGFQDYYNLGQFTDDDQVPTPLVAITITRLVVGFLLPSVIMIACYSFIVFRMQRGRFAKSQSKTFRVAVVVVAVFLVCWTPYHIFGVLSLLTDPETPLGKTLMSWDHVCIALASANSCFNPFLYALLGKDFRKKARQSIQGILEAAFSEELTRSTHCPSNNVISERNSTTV

168 GPCRs [3] = biological target: T3, 168 GPCRs (Homo sapiens, UniProt Q13324)
T3 construct: host or cells: PathHunter cell lines
T3 sequence (Q13324 1-411): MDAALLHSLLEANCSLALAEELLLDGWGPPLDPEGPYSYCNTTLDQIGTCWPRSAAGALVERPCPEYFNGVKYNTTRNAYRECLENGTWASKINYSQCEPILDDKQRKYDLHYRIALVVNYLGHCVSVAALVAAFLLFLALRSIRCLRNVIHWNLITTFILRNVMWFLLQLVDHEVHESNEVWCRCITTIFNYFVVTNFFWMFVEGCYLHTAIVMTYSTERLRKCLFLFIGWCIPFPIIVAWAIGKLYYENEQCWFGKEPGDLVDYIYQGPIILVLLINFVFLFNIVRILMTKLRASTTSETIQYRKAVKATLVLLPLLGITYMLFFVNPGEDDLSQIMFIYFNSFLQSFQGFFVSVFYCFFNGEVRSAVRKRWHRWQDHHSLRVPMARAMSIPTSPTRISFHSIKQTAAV

168 GPCRs [4] = biological target: T4, 168 GPCRs (Homo sapiens, UniProt P32246)
T4 construct: host or cells: PathHunter cell lines
T4 sequence (P32246 1-355): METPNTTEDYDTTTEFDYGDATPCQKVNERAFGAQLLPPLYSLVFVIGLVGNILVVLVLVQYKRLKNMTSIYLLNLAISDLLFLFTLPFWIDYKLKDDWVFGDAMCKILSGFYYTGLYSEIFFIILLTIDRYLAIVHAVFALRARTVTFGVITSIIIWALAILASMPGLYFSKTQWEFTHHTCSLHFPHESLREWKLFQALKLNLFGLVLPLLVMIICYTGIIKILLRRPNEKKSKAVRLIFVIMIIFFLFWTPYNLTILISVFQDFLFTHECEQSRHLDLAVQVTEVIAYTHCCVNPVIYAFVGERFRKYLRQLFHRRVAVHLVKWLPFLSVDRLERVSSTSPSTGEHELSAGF

168 GPCRs [5] = biological target: T5, 168 GPCRs (Homo sapiens, UniProt P25103); settings: TACR1
T5 construct: host or cells: PathHunter cell lines

168 GPCRs [6] = biological target: T6, 168 GPCRs (Homo sapiens, UniProt P25105); settings: PTAFR
T6 construct: host or cells: PathHunter cell lines

168 GPCRs [7] = biological target: T7, 168 GPCRs (Homo sapiens, UniProt O43193); settings: MLNR
T7 construct: host or cells: PathHunter cell lines

168 GPCRs [8] = biological target: T8, 168 GPCRs (Homo sapiens, UniProt P34972)
T8 construct: host or cells: PathHunter cell lines
T8 sequence (P34972 whole entry): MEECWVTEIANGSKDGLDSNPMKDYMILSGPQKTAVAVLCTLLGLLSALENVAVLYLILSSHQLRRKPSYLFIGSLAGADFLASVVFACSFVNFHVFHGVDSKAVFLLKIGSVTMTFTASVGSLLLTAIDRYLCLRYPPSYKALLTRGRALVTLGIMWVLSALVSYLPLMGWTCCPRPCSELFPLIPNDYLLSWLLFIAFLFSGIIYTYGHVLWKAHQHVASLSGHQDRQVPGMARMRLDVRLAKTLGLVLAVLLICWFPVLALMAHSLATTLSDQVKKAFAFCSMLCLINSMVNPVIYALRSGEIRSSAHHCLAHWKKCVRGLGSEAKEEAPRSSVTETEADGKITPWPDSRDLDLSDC

T6 sequence (P25105 whole entry): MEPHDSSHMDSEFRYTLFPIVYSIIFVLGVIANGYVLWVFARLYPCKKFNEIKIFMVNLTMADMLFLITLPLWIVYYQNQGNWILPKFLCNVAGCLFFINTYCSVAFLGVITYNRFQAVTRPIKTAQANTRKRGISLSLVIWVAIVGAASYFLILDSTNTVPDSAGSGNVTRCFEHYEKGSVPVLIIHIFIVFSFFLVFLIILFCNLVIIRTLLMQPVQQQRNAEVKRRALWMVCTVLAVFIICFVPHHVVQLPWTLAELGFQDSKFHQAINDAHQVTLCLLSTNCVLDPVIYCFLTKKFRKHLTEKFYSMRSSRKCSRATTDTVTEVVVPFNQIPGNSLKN
T7 sequence (O43193 whole entry): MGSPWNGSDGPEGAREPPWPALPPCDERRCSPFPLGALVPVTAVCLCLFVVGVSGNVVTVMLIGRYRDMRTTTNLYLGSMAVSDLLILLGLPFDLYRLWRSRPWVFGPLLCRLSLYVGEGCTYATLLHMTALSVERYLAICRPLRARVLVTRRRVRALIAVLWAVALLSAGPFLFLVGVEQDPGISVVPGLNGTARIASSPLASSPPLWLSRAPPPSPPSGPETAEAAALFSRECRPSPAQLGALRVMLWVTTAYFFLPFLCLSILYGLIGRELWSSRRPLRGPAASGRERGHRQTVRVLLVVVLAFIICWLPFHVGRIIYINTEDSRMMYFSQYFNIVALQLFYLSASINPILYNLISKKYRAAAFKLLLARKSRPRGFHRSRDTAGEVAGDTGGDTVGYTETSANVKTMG
T1 sequence (Q8TDS4 whole entry): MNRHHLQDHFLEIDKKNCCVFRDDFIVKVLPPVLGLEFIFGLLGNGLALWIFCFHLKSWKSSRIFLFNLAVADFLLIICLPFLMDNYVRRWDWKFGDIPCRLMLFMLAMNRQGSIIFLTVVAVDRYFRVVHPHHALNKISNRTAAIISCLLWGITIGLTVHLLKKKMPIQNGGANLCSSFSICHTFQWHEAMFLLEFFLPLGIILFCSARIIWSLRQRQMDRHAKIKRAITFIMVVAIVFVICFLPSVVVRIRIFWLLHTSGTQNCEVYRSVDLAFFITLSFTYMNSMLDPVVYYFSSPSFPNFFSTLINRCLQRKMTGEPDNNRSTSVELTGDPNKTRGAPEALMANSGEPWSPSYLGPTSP
T5 sequence (P25103 whole entry): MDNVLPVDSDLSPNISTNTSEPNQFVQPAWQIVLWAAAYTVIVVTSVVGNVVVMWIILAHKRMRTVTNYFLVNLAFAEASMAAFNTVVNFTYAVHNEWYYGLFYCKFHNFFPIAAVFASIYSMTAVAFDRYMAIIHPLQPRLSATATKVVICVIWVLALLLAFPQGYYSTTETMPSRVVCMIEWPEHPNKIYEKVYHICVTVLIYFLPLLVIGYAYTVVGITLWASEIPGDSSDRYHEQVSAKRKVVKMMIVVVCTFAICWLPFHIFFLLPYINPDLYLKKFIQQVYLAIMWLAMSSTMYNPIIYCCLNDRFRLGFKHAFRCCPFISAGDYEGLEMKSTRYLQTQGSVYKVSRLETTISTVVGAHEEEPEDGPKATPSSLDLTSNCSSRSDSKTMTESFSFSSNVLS

With `CNC(C)C(=O)c1ccc2c(c1)OCO2` (stereo not shown) [methylone] the “% Agonist Activity” value (168 GPCRs [1]; 1 uM) was -8.7%, the “% Antagonist Activity” value (168 GPCRs [1]; 1 uM) was 1.4% and the “% Agonist Activity” value (168 GPCRs [1]; 10 uM) was -4.3%. For the same molecule, the “% Antagonist Activity” value (168 GPCRs [1]; 10 uM) was -0.3%, the “% Agonist Activity” value (168 GPCRs [2]; C3AR1, 1 uM) was -0.1% and the “% Antagonist Activity” value (168 GPCRs [2]; C3AR1, 1 uM) was 2.5%. For the same molecule, the “% Agonist Activity” value (168 GPCRs [2]; C3AR1, 10 uM) was 0%, the “% Antagonist Activity” value (168 GPCRs [2]; C3AR1, 10 uM) was 0.3% and the “% Agonist Activity” value (168 GPCRs [3]; CRHR2, 1 uM) was 0.9%. For the same molecule, the “% Antagonist Activity” value (168 GPCRs [3]; CRHR2, 1 uM) was -2%, the “% Agonist Activity” value (168 GPCRs [3]; CRHR2, 10 uM) was 0.9% and the “% Antagonist Activity” value (168 GPCRs [3]; CRHR2, 10 uM) was -0.3%. The “% Agonist Activity” value (168 GPCRs [4]; CCR1, 1 uM) was -2.6%, the “% Antagonist Activity” value (168 GPCRs [4]; CCR1, 1 uM) was -8.1% and the “% Agonist Activity” value (168 GPCRs [4]; CCR1, 10 uM) was 3.6%. For the same molecule, the “% Antagonist Activity” value (168 GPCRs [4]; CCR1, 10 uM) was -16.6%, the “% Agonist Activity” value (168 GPCRs [5]; Conc 1 uM) was -3.9% and the “% Antagonist Activity” value (168 GPCRs [5]; Conc 1 uM) was 15.2%. For the same molecule, the “% Agonist Activity” value (168 GPCRs [5]; Conc 10 uM) was -4.4%, the “% Antagonist Activity” value (168 GPCRs [5]; Conc 10 uM) was 8.9% and the “% Agonist Activity” value (168 GPCRs [6]; Conc 1 uM) was -1.3%. For the same molecule, the “% Antagonist Activity” value (168 GPCRs [6]; Conc 1 uM) was 2%, the “% Agonist Activity” value (168 GPCRs [6]; Conc 10 uM) was -2.6% and the “% Antagonist Activity” value (168 GPCRs [6]; Conc 10 uM) was -6.7%. The “% Agonist Activity” value (168 GPCRs [7]; 1 uM) was -1.5%, the “% Antagonist Activity” value (168 GPCRs [7]; 1 uM) was 15.6% and the “% Agonist Activity” value (168 GPCRs [7]; 10 uM) was -1%. The “% Antagonist Activity” value (168 GPCRs [7]; 10 uM) was 12.3%, the “% Agonist Activity” value (168 GPCRs [8]; CNR2, 1 uM) was 7% and the “% Antagonist Activity” value (168 GPCRs [8]; CNR2, 1 uM) was 3.6%. The “% Agonist Activity” value (168 GPCRs [8]; CNR2, 10 uM) was 3.2% and the “% Antagonist Activity” value (168 GPCRs [8]; CNR2, 10 uM) was -3.2%.
With `CNC(C)Cc1ccc2c(c1)OCO2` (stereo not shown) [MDMA, 3,4-Methylenedioxy methamphetamine, reference compound] the “% Agonist Activity” value (168 GPCRs [1]; 1 uM) was -2.1%, the “% Antagonist Activity” value (168 GPCRs [1]; 1 uM) was 3.7% and the “% Agonist Activity” value (168 GPCRs [1]; 10 uM) was 0.4%. The “% Antagonist Activity” value (168 GPCRs [1]; 10 uM) was 1%, the “% Agonist Activity” value (168 GPCRs [2]; C3AR1, 1 uM) was 0.2% and the “% Antagonist Activity” value (168 GPCRs [2]; C3AR1, 1 uM) was 12.9%. For the same molecule, the “% Agonist Activity” value (168 GPCRs [2]; C3AR1, 10 uM) was 0.2%, the “% Antagonist Activity” value (168 GPCRs [2]; C3AR1, 10 uM) was 9.8% and the “% Agonist Activity” value (168 GPCRs [3]; CRHR2, 1 uM) was -0.2%. For the same molecule, the “% Antagonist Activity” value (168 GPCRs [3]; CRHR2, 1 uM) was 4.3%, the “% Agonist Activity” value (168 GPCRs [3]; CRHR2, 10 uM) was -0.1% and the “% Antagonist Activity” value (168 GPCRs [3]; CRHR2, 10 uM) was 5.7%. The “% Agonist Activity” value (168 GPCRs [4]; CCR1, 1 uM) was 13.6%, the “% Antagonist Activity” value (168 GPCRs [4]; CCR1, 1 uM) was -13% and the “% Agonist Activity” value (168 GPCRs [4]; CCR1, 10 uM) was 6.2%. The “% Antagonist Activity” value (168 GPCRs [4]; CCR1, 10 uM) was -7.6%, the “% Agonist Activity” value (168 GPCRs [5]; Conc 1 uM) was -0.2% and the “% Antagonist Activity” value (168 GPCRs [5]; Conc 1 uM) was 4.4%. The “% Agonist Activity” value (168 GPCRs [5]; Conc 10 uM) was -0.1%, the “% Antagonist Activity” value (168 GPCRs [5]; Conc 10 uM) was -2.1% and the “% Agonist Activity” value (168 GPCRs [6]; Conc 1 uM) was 0.6%. For the same molecule, the “% Antagonist Activity” value (168 GPCRs [6]; Conc 1 uM) was 11.4%, the “% Agonist Activity” value (168 GPCRs [6]; Conc 10 uM) was 0.4% and the “% Antagonist Activity” value (168 GPCRs [6]; Conc 10 uM) was 12.1%. For the same molecule, the “% Agonist Activity” value (168 GPCRs [7]; 1 uM) was -0.3%, the “% Antagonist Activity” value (168 GPCRs [7]; 1 uM) was 6.2% and the “% Agonist Activity” value (168 GPCRs [7]; 10 uM) was -0.1%. For the same molecule, the “% Antagonist Activity” value (168 GPCRs [7]; 10 uM) was 16.3%, the “% Agonist Activity” value (168 GPCRs [8]; CNR2, 1 uM) was 0.1% and the “% Antagonist Activity” value (168 GPCRs [8]; CNR2, 1 uM) was 8.9%. For the same molecule, the “% Agonist Activity” value (168 GPCRs [8]; CNR2, 10 uM) was -6.8% and the “% Antagonist Activity” value (168 GPCRs [8]; CNR2, 10 uM) was 7.8%.
